Experimental data as given in patent US6319702A, “Nucleic acids encoding mutant human carboxypeptidase A enzymes” (Glaxo Wellcome, Inc., priority 1993, dated 2001).
Like-named read-outs stand apart in the source and are kept apart here.

What was measured:
268gly = test: Enzyme kinetics of prodrugs with 268gly mutant of human CPA1 (coupled assay); assay type: biochemical; details: 268Gly
Source text: As indicated herein, the in vivo stable prodrug of the present invention should be a better substrate for a mutant enzyme than the corresponding wild type enzyme in order for the stable prodrug to be activated selectively at the tumour. […] The most relevant kinetic constant in the table is the kcat/Km, which provides an estimate of the second order rate constant for the enzyme catalyzed conversion of prodrug to methotrexate. Thus, the larger the kcat/Km, the more efficient the enzyme with a particular substrate. […] Thus, the single mutation at 268 from thr to gly converted very poor substrates in the wild type enzyme to excellent substrates in the mutant enzyme. […] Thus, the compounds are much better substrates for the mutant enzyme than the wild type enzyme which permits very specific tumor targeted activation of the nontoxic, stable prodrug to the active agent.
Kinetics were determined by a modification of the coupled assay of Kuefner, et al (1989) Biochemistry 28 2288-2297 in which the product MTX is converted by excess carboxypeptidase G to the pteroate of MTX. In this assay the reaction is followed spectrophotometrically at 315 nm; at this wavelength the change in molar absorbtivity for the coupled reaction was determined to be 9.57 mM^-1 cm^-1. Assays were performed at 25° C. in 25 mM tris-HCl, 100 mM NaCl, pH 7.4. Prodrugs were preincubated at 25° C. with buffer and 17 milliunits of Sigma #C-9658 carboxypeptidase G in 1 ml total volume. Assay was initiated with carboxypeptidase A or the appropriate mutant. Initial velocities were obtained, and standard Michaelis-Menten calculations were used to determine kinetic constants (in Biochemistry, Lehninger, A. L. 1970, Worth Publishers, Inc, NY).

[1] = target: T1, wild type human carboxypeptidase A1 (Homo sapiens, UniProt P15085); test: Enzyme kinetics of prodrugs with wild type human carboxypeptidase A1 (coupled assay); assay type: biochemical
T1 sequence (P15085 111-419): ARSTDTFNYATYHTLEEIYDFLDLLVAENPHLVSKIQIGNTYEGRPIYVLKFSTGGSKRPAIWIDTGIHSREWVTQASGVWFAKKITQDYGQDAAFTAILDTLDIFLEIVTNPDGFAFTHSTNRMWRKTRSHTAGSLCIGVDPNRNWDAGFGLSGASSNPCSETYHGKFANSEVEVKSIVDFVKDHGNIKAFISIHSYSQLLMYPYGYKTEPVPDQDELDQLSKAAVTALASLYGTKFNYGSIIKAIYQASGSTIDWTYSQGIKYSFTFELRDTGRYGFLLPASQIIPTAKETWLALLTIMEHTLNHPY
Method in brief: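 Coupled spectrophotometric assay: released methotrexate converted by excess carboxypeptidase G (17 milliunits) to its pteroate, followed at 315 nm (Δε 9.57 mM^-1 cm^-1). 25° C in 25 mM tris-HCl, 100 mM NaCl, pH 7.4; reaction started with wild-type or mutant carboxypeptidase A. Kinetic constants from initial velocities by Michaelis-Menten analysis.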

[2] = Stability and biodistribution of prodrugs in vivo (HPLC of plasma and tissues); parameters: species or system mice (CD-1 nude; BALB/C where indicated); details: for remaining at 0.5 h / remaining at 2 h / concentration at 0.5 h: mouse; for concentration at 0.5 h: read-out: concentration of prodrug in plasma
mutant enzyme = test: Substrate behaviour with mutant enzyme; assay type: biochemical, human
Source text: This type of compound is not useful for ADEPT.

CN(Cc1cnc2nc(N)nc(N)c2n1)c1ccc(C(=O)N[C@@H](CCC(=O)O)C(=O)N[C@@H](Cc2cccc(C3CCCC3)c2)C(=O)O)cc1 [Prodrug 9]
kcat/Km (268gly): 92000 M⁻¹ s⁻¹ | human CPA catalyzed reaction (in words) [1]: not measureable | kcat/Km for human CPA1 compared with that of the L-phenylalanine prodrug (in words) [1]: much lower | substrate for wild type CPA (in words) [1]: not for the wild type enzyme | concentration of prodrug in cecum ([2]; CECUM, 30 min, 50 mg/kg i.p. or i.v., CD-1 nude mice): 4.l | concentration of prodrug in cecum ([2]; CECUM, 120 min, 50 mg/kg i.p. or i.v., CD-1 nude mice): 108.3 nmol/g | concentration of prodrug in feces ([2]; FECES, 30 min, 50 mg/kg i.p. or i.v., BALB/C mice): 1604.27 nmol/g | concentration of prodrug in feces ([2]; FECES, 30 min, 50 mg/kg i.p. or i.v., CD-1 nude mice): 1104.1 nmol/g | concentration of prodrug in feces ([2]; FECES, 120 min, 50 mg/kg i.p. or i.v., CD-1 nude mice): 1505.7 nmol/g | concentration of prodrug in kidney ([2]; KIDNEY, 30 min, 50 mg/kg i.p. or i.v., CD-1 nude mice): 6.8 nmol/g | concentration of prodrug in kidney ([2]; KIDNEY, 120 min, 50 mg/kg i.p. or i.v., CD-1 nude mice): 1.3 nmol/g | concentration of prodrug in large intestine ([2]; LARGE INTESTINE, 30 min, 50 mg/kg i.p. or i.v., CD-1 nude mice): 2.6 nmol/g | concentration of prodrug in large intestine ([2]; LARGE INTESTINE, 120 min, 50 mg/kg i.p. or i.v., CD-1 nude mice): 6.2 nmol/g | concentration of prodrug in liver ([2]; LIVER, 30 min, 50 mg/kg i.p. or i.v., CD-1 nude mice): 54.3 nmol/g | concentration of prodrug in liver ([2]; LIVER, 120 min, 50 mg/kg i.p. or i.v., CD-1 nude mice): 126.2 nmol/g | concentration of prodrug in small intestine ([2]; SMALL INTESTINE, 30 min, 50 mg/kg i.p. or i.v., BALB/C mice): 420.3 nmol/g | concentration of prodrug in small intestine ([2]; SMALL INTESTINE, 30 min, 50 mg/kg i.p. or i.v., CD-1 nude mice): 377.9 nmol/g | concentration of prodrug in small intestine ([2]; SMALL INTESTINE, 120 min, 50 mg/kg i.p. or i.v., CD-1 nude mice): 211.0 nmol/g | concentration of prodrug in spleen ([2]; SPLEEN, 30 min, 50 mg/kg i.p. or i.v., CD-1 nude mice): 8.4 nmol/g | stability in vivo (in words) ([2]; mice, 50 mg/kg): stable in vivo | remaining at 0.5 h ([2]; cecum, 50 mg/kg, CECUM, 30 min, 50 mg/kg i.p. or i.v., CD-1 nude mice, read-out: stability: percentage of material observed as intact prodrug, cecum): 100% | remaining at 2 h ([2]; cecum, 50 mg/kg, CECUM, 120 min, 50 mg/kg i.p. or i.v., CD-1 nude mice, read-out: stability: percentage of material observed as intact prodrug, cecum): 99% | remaining at 0.5 h ([2]; feces, 50 mg/kg, FECES, 30 min, 50 mg/kg i.p. or i.v., BALB/C mice, read-out: stability: percentage of material observed as intact prodrug, feces (converted)): 98% | remaining at 0.5 h ([2]; feces, 50 mg/kg, FECES, 30 min, 50 mg/kg i.p. or i.v., CD-1 nude mice, read-out: stability: percentage of material observed as intact prodrug, feces (converted)): 97% | remaining at 2 h ([2]; feces, 50 mg/kg, FECES, 120 min, 50 mg/kg i.p. or i.v., CD-1 nude mice, read-out: stability: percentage of material observed as intact prodrug, feces): 94% | remaining at 0.5 h ([2]; kidney, 50 mg/kg, KIDNEY, 30 min, 50 mg/kg i.p. or i.v., CD-1 nude mice, read-out: stability: percentage of material observed as intact prodrug, kidney): 100% | remaining at 2 h ([2]; kidney, 50 mg/kg, KIDNEY, 120 min, 50 mg/kg i.p. or i.v., CD-1 nude mice, read-out: stability: percentage of material observed as intact prodrug, kidney): 100% | remaining at 0.5 h ([2]; large intestine, 50 mg/kg, LARGE INTESTINE, 30 min, 50 mg/kg i.p. or i.v., CD-1 nude mice, read-out: stability: percentage of material observed as intact prodrug, large intestine): 100% | remaining at 2 h ([2]; large intestine, 50 mg/kg, LARGE INTESTINE, 120 min, 50 mg/kg i.p. or i.v., CD-1 nude mice, read-out: stability: percentage of material observed as intact prodrug, large intestine): 100% | remaining at 0.5 h ([2]; liver, 50 mg/kg, LIVER, 30 min, 50 mg/kg i.p. or i.v., CD-1 nude mice, read-out: stability: percentage of material observed as intact prodrug, liver (converted)): 83% | remaining at 2 h ([2]; liver, 50 mg/kg, LIVER, 120 min, 50 mg/kg i.p. or i.v., CD-1 nude mice, read-out: stability: percentage of material observed as intact prodrug, liver): 94% | concentration at 0.5 h ([2]; plasma, 50 mg/kg, PLASMA, 30 min, 50 mg/kg i.p. or i.v., BALB/C mice): 4900 nM | remaining at 0.5 h ([2]; plasma, 50 mg/kg, PLASMA, 30 min, 50 mg/kg i.p. or i.v., BALB/C mice, read-out: stability: percentage of material observed as intact prodrug, plasma): 100% | concentration at 0.5 h ([2]; plasma, 50 mg/kg, PLASMA, 30 min, 50 mg/kg i.p. or i.v., CD-1 nude mice): 1100 nM | remaining at 0.5 h ([2]; plasma, 50 mg/kg, PLASMA, 30 min, 50 mg/kg i.p. or i.v., CD-1 nude mice, read-out: stability: percentage of material observed as intact prodrug, plasma): 100% | remaining at 0.5 h ([2]; small intestine, 50 mg/kg, SMALL INTESTINE, 30 min, 50 mg/kg i.p. or i.v., BALB/C mice, read-out: stability: percentage of material observed as intact prodrug, small intestine): 98% | remaining at 0.5 h ([2]; small intestine, 50 mg/kg, SMALL INTESTINE, 30 min, 50 mg/kg i.p. or i.v., CD-1 nude mice, read-out: stability: percentage of material observed as intact prodrug, small intestine): 97% | remaining at 2 h ([2]; small intestine, 50 mg/kg, SMALL INTESTINE, 120 min, 50 mg/kg i.p. or i.v., CD-1 nude mice, read-out: stability: percentage of material observed as intact prodrug, small intestine): 93% | remaining at 0.5 h ([2]; spleen, 50 mg/kg, SPLEEN, 30 min, 50 mg/kg i.p. or i.v., CD-1 nude mice, read-out: stability: percentage of material observed as intact prodrug, spleen): 100% | substrate for a mutant enzyme (in words) (mutant enzyme): good substrates for a mutant enzyme
